This is an account of results in the supplement of paper PMC10307832.

Common to all, as to test: relative viability (nuclei count vs DMSO), 5 days (fraction); higher = more cells survive
Compound in the experiment “Imatinib + OSI-027”: Cc1ccc(NC(=O)c2ccc(CN3CCN(C)CC3)cc2)cc1Nc1nccc(-c2cccnc2)n1 [Imatinib] + COc1cccc2cc(-c3nc([C@H]4CC[C@H](C(=O)O)CC4)n4ncnc(N)c34)[nH]c12 [OSI-027] (partner 0.5 µM)
The method, boiled down: (§1)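 Lung cancer cell lines were seeded in 1536-well plates and dosed by pin tool the next day, with either a single drug or a fixed anchor-drug dose combined with five library-drug doses (not always all listed) spaced in √10 steps. Five days later, one step fixed the cells and stained their nuclei (final 0.05% Triton X-100, 1% formaldehyde, 1 ug/ml Hoechst), and nuclei were counted on 4× images. Relative viability is the nuclei count in treated wells divided by the count in vehicle wells, and each value is the median of duplicate plates.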

Compound in the experiment “Imatinib + Pictilisib”: Cc1ccc(NC(=O)c2ccc(CN3CCN(C)CC3)cc2)cc1Nc1nccc(-c2cccnc2)n1 [Imatinib] + CS(=O)(=O)N1CCN(Cc2cc3nc(-c4cccc5[nH]ncc45)nc(N4CCOCC4)c3s2)CC1 [Pictilisib] (partner 1 µM)
The gist of the method: as §1

Compound in the experiment “Imatinib + Crizotinib”: Cc1ccc(NC(=O)c2ccc(CN3CCN(C)CC3)cc2)cc1Nc1nccc(-c2cccnc2)n1 [Imatinib] + C[C@@H](Oc1cc(-c2cnn(C3CCNCC3)c2)cnc1N)c1c(Cl)ccc(F)c1Cl [Crizotinib] (partner 1 µM)
The gist of the method: as §1

Compound in the experiment “Imatinib + Alpelisib”: Cc1ccc(NC(=O)c2ccc(CN3CCN(C)CC3)cc2)cc1Nc1nccc(-c2cccnc2)n1 [Imatinib] + Cc1nc(NC(=O)N2CCC[C@H]2C(N)=O)sc1-c1ccnc(C(C)(C)C(F)(F)F)c1 [Alpelisib] (partner 2 µM)
The method, boiled down: as §1

Consider NCI-H2023, for which the relative viability in the experiment with Imatinib + OSI-027 (first compound 0.02 µM) was determined as 0.524; in the experiment with Imatinib + OSI-027 (first compound 0.06325 µM) it was 0.303; in the experiment with Imatinib + OSI-027 (first compound 0.2 µM), 0.426; in the experiment with Imatinib + OSI-027 (first compound 0.6325 µM) it was 0.314; with Imatinib + OSI-027 (first compound 2 µM), 0.334; with Imatinib + Pictilisib (first compound 0.02 µM), 0.247. Moreover, the relative viability was 0.191 in the experiment with Imatinib + Pictilisib (first compound 0.06325 µM); 0.224 in the experiment with Imatinib + Pictilisib (first compound 0.2 µM); 0.213 with Imatinib + Pictilisib (first compound 0.6325 µM); 0.217 with Imatinib + Pictilisib (first compound 2 µM); 0.61 in the experiment with Imatinib + Crizotinib (first compound 0.02 µM); 0.708 in the experiment with Imatinib + Crizotinib (first compound 0.06325 µM). For the same cell line, the relative viability in the experiment with Imatinib + Crizotinib (first compound 0.2 µM) is 0.715; with Imatinib + Crizotinib (first compound 0.6325 µM), 0.616; in the experiment with Imatinib + Crizotinib (first compound 2 µM), 0.706; in the experiment with Imatinib + Alpelisib (first compound 0.02 µM), 0.633; with Imatinib + Alpelisib (first compound 0.06325 µM), 0.728; with Imatinib + Alpelisib (first compound 0.2 µM) it was 0.653. In addition, the relative viability in the experiment with Imatinib + Alpelisib (first compound 0.6325 µM) came out at 0.577; with Imatinib + Alpelisib (first compound 2 µM), 0.586.
On to NCI-H2085, for which the relative viability with Imatinib + OSI-027 (first compound 0.02 µM) is 0.823; in the experiment with Imatinib + OSI-027 (first compound 0.06325 µM), 0.432; with Imatinib + OSI-027 (first compound 0.2 µM), 0.717; with Imatinib + OSI-027 (first compound 0.6325 µM), 0.724; with Imatinib + OSI-027 (first compound 2 µM) it was 0.588; in the experiment with Imatinib + Pictilisib (first compound 0.02 µM), 0.448. The relative viability with Imatinib + Pictilisib (first compound 0.06325 µM) stood at 0.462; with Imatinib + Pictilisib (first compound 0.2 µM) it was 0.472; in the experiment with Imatinib + Pictilisib (first compound 0.6325 µM) it was 0.594; with Imatinib + Pictilisib (first compound 2 µM) it was 0.434; with Imatinib + Crizotinib (first compound 0.02 µM), 0.826; in the experiment with Imatinib + Crizotinib (first compound 0.06325 µM), 0.891. Moreover, the relative viability with Imatinib + Crizotinib (first compound 0.2 µM) turned out to be 0.903; in the experiment with Imatinib + Crizotinib (first compound 0.6325 µM), 0.839; with Imatinib + Crizotinib (first compound 2 µM), 0.841; with Imatinib + Alpelisib (first compound 0.02 µM) it was 1; in the experiment with Imatinib + Alpelisib (first compound 0.06325 µM), 0.937; in the experiment with Imatinib + Alpelisib (first compound 0.2 µM), 1.05. Further, the relative viability with Imatinib + Alpelisib (first compound 0.6325 µM) was determined as 1.01; with Imatinib + Alpelisib (first compound 2 µM), 0.876.
Turning to NCI-H2087, the relative viability with Imatinib + OSI-027 (first compound 0.02 µM) was determined as 0.601; with Imatinib + OSI-027 (first compound 0.2 µM) it was 0.643; with Imatinib + OSI-027 (first compound 0.6325 µM) it was 0.618; with Imatinib + OSI-027 (first compound 2 µM), 0.572; with Imatinib + Pictilisib (first compound 0.02 µM), 1.13; in the experiment with Imatinib + Pictilisib (first compound 0.06325 µM), 0.44. In addition, the relative viability with Imatinib + Pictilisib (first compound 0.2 µM) was 0.796; in the experiment with Imatinib + Pictilisib (first compound 2 µM), 0.858; with Imatinib + Crizotinib (first compound 0.02 µM), 0.894; with Imatinib + Crizotinib (first compound 0.06325 µM), 0.983; with Imatinib + Crizotinib (first compound 0.2 µM), 0.943; with Imatinib + Crizotinib (first compound 0.6325 µM), 0.941. Also, the relative viability amounted to 0.718 with Imatinib + Crizotinib (first compound 2 µM); 0.975 with Imatinib + Alpelisib (first compound 0.02 µM); 1.19 in the experiment with Imatinib + Alpelisib (first compound 0.06325 µM); 1.23 in the experiment with Imatinib + Alpelisib (first compound 0.2 µM); 0.96 with Imatinib + Alpelisib (first compound 0.6325 µM); 1.05 in the experiment with Imatinib + Alpelisib (first compound 2 µM).
With NCI-H2170, the relative viability with Imatinib + OSI-027 (first compound 0.02 µM) was found to be 0.67; with Imatinib + OSI-027 (first compound 0.06325 µM), 0.602; in the experiment with Imatinib + OSI-027 (first compound 0.2 µM) it was 0.769; in the experiment with Imatinib + OSI-027 (first compound 0.6325 µM) it was 0.584; with Imatinib + OSI-027 (first compound 2 µM) it was 0.625; with Imatinib + Pictilisib (first compound 0.02 µM), 0.292. For the same cell line, the relative viability worked out at 0.334 in the experiment with Imatinib + Pictilisib (first compound 0.06325 µM); 0.283 with Imatinib + Pictilisib (first compound 0.2 µM); 0.254 with Imatinib + Pictilisib (first compound 0.6325 µM); 0.26 in the experiment with Imatinib + Pictilisib (first compound 2 µM); 1.5 with Imatinib + Crizotinib (first compound 0.02 µM); 1.49 with Imatinib + Crizotinib (first compound 0.06325 µM). Moreover, the relative viability amounted to 1.52 with Imatinib + Crizotinib (first compound 0.2 µM); 1.3 in the experiment with Imatinib + Crizotinib (first compound 0.6325 µM); 1.22 with Imatinib + Crizotinib (first compound 2 µM); 0.954 in the experiment with Imatinib + Alpelisib (first compound 0.02 µM); 0.931 with Imatinib + Alpelisib (first compound 0.06325 µM); 0.846 with Imatinib + Alpelisib (first compound 0.2 µM). For the same cell line, the relative viability in the experiment with Imatinib + Alpelisib (first compound 0.6325 µM) was determined as 0.789; with Imatinib + Alpelisib (first compound 2 µM) it was 0.797.
Turning to NCI-H2228, the relative viability with Imatinib + OSI-027 (first compound 0.02 µM) was determined as 0.755; with Imatinib + OSI-027 (first compound 0.2 µM), 0.489; with Imatinib + OSI-027 (first compound 0.6325 µM), 0.423; in the experiment with Imatinib + OSI-027 (first compound 2 µM), 0.478; with Imatinib + Pictilisib (first compound 0.02 µM), 0.525; in the experiment with Imatinib + Pictilisib (first compound 0.06325 µM), 0.178. Further, the relative viability is 0.427 in the experiment with Imatinib + Pictilisib (first compound 0.2 µM); 0.534 with Imatinib + Pictilisib (first compound 0.6325 µM); 0.52 with Imatinib + Pictilisib (first compound 2 µM); 0.351 with Imatinib + Crizotinib (first compound 0.02 µM); 0.383 in the experiment with Imatinib + Crizotinib (first compound 0.06325 µM); 0.54 with Imatinib + Crizotinib (first compound 0.2 µM). In addition, the relative viability came to 0.478 in the experiment with Imatinib + Crizotinib (first compound 0.6325 µM); 0.393 with Imatinib + Crizotinib (first compound 2 µM); 0.814 in the experiment with Imatinib + Alpelisib (first compound 0.02 µM); 0.782 with Imatinib + Alpelisib (first compound 0.06325 µM); 0.724 in the experiment with Imatinib + Alpelisib (first compound 0.2 µM); 0.626 with Imatinib + Alpelisib (first compound 0.6325 µM). In the experiment with Imatinib + Alpelisib (first compound 2 µM), the relative viability was 0.807.
